From patent US8067445B2, “N,N-disubstituted aminoalkylbiphenyl antagonists of prostaglandin D2 receptors” (Panmira Pharmaceuticals, LLC, priority 2008, dated 2011) come the findings set out here.

Test [1] concerns the target T1, recombinant human CRTH2 receptor (Homo sapiens, UniProt Q9Y5Y4).
T1 construct: expressed in transfected cells
T1 sequence (Q9Y5Y4 1-395): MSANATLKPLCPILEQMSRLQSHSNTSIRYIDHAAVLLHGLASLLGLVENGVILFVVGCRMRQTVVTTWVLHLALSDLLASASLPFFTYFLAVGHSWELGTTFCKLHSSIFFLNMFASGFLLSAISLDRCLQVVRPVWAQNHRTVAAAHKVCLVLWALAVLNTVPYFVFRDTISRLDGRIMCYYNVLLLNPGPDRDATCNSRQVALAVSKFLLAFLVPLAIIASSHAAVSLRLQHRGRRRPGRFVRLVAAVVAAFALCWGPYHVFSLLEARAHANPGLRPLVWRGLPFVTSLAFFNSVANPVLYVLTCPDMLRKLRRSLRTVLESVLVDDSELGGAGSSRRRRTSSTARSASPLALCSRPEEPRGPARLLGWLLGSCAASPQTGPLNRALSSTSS
Put plainly: GTPγS binding assay. The test is classed as biochemical. To be noted: +HSA (0.2% human serum albumin), 80 nM PGD2, CHO cell membranes; read-out: hDP2 GTPγS μM (+HSA). On the procedure: The ability of a compound to inhibit binding of GTP to DP2 is assessed via a membrane GTPγS assay. CHO cells stably expressing the recombinant human CRTH2 receptor are resuspended in 10 mM Hepes, 7.4 containing 1 mM DTT, lysed and centrifuged at 75,000×g to pellet the membranes. The membranes are resuspended in 10 mM Hepes, 7.4 containing 1 mM DTT and 10% glycerol. […] The reactions are terminated by rapid filtration through Whatman GF/B glass fibre filter plates. The filter plates are washed 3 times with 1 ml cold Assay Buffer and dried. Scintillant is then added to the plates and the radioactivity retained on the filters is determined on a Packard TopCount (Perkin Elmer). Specific binding is determined as total radioactive binding minus non-specific binding in the absence of the ligand (80 nM PGD2). IC50s were determined using Graphpad prism analysis of drug titration curves.

The target of the next test is T2, human DP1 receptor (Homo sapiens, UniProt Q13258).
T2 construct: tissue Biological Specialty Corporation; host or cells: human platelet membranes
T2 sequence (Q13258 1-359): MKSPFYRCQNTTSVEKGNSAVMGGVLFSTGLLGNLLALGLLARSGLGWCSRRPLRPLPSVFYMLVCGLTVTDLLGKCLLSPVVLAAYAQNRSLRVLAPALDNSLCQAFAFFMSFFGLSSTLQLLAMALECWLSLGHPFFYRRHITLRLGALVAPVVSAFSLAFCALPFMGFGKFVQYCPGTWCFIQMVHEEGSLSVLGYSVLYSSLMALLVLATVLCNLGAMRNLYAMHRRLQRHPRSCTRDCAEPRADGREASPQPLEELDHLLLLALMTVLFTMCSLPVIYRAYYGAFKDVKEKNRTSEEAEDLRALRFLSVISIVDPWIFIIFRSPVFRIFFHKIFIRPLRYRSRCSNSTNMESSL
The test is described as follows: DP1 radioligand binding assay ([3H]BWA868C, platelet membranes). To be noted: [3H]BWA868C binding, human platelet membranes; read-out: hDP1. The procedure, abridged: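 Human platelet membranes (20 μg protein/well) incubated 60 min at room temperature with 2 nM [3H]BWA868C and compound in 50 mM Hepes, 10 mM MnCl2, 1 mM EDTA, pH 7.4, ± 0.2% human serum albumin. Bound radioactivity measured after filtration; nonspecific binding defined with 10 μM BWA868C; IC50 from titration curves.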

The next test deals with T3, human DP2 receptor (Homo sapiens, UniProt Q9Y5Y4).
T3 construct: expressed in transfected cells
T3 sequence (Q9Y5Y4 1-395): T1 sequence (Q9Y5Y4 1-395)
The test is described as follows: DP2/CRTH2 radioligand binding assay ([3H]PGD2). To be noted: [3H]PGD2 binding, membranes of HEK293 cells expressing human DP2; read-out: hDP2. The procedure, abridged: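 Membranes from HEK293 cells stably expressing recombinant human DP2 incubated 60 min at room temperature with 1 nM [3H]PGD2 and compound in pH 7.4 Hepes/MnCl2/EDTA buffer, ± 0.2% human serum albumin. Bound radioactivity measured after filtration; non-specific binding defined with 10 μM PGD2. IC50 from titration curves.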

For `COc1ccc(CC(=O)O)cc1-c1ccc(C(F)(F)F)cc1CN(CCc1ccccc1)C(C)=O` [Compound 1-20, {2′-[(Acetyl-phenethyl-amino)-methyl]-6-methoxy-4′-trifluoromethyl-biphenyl-3-yl}-acetic acid], the results for the IC50 (in test [1]; at human DP1 receptor; at human DP2 receptor) were less than 0.3 µM, 1000 to 30000 nM and less than 300 nM, respectively.
`COc1ccc(CC(=O)O)cc1-c1ccc(C(F)(F)F)cc1CN(C(C)=O)C1Cc2ccccc2C1` [Compound 1-17, {2′-[(Acetyl-indan-2-yl-amino)-methyl]-6-methoxy-4′-trifluoromethyl-biphenyl-3-yl}-acetic acid]: the IC50 in test [1] was less than 0.3 µM; on human DP1 receptor, 1000 to 30000 nM; on human DP2 receptor it was less than 300 nM.
The corresponding values for `CCN(Cc1cc(C(F)(F)F)ccc1-c1ccc(F)c(CC(=O)O)c1)C(=O)OCc1ccccc1` [Compound 1-127, {2′-[(Benzyloxycarbonyl-ethyl-amino)-methyl]-4-fluoro-4′-trifluoromethyl-biphenyl-3-yl}-acetic acid] are less than 0.3 µM, 300 to 1000 nM and less than 300 nM.
The corresponding values for `CCN(Cc1cc(C(F)(F)F)ccc1-c1cc(CC(=O)O)ccc1OC)C(=O)C[S+]([O-])c1ccccc1` (stereo not drawn) [Compound 1-119, (2′-{[(2-Benzenesulfinyl-acetyl)-ethyl-amino]-methyl}-6-methoxy-4′-trifluoromethyl-biphenyl-3-yl)-acetic acid] are less than 0.3 µM, 1000 to 30000 nM and less than 300 nM.
The corresponding values for `COc1ccc(CC(=O)O)cc1-c1ccc(C(F)(F)F)cc1CN(C(C)=O)[C@@H]1CCc2ccccc21` [Compound 1-13, {2′-[((R)-Acetyl-indan-1-yl-amino)-methyl]-6-methoxy-4′-trifluoromethyl-biphenyl-3-yl}-acetic acid] are 0.3 to 1 µM, less than 300 nM and 300 to 1000 nM.
For `CCN(Cc1cccc(OC)c1-c1cccc(CC(=O)O)c1)C(=O)OCc1cc(F)cc(F)c1` [Compound 1-123, (2′-{[(3,5-Difluoro-benzyloxycarbonyl)-ethyl-amino]-methyl}-6′-methoxy-biphenyl-3-yl)-acetic acid], the IC50 in test [1] is 0.3 to 1 µM; at human DP1 receptor, 300 to 1000 nM; on human DP2 receptor, less than 300 nM.
The corresponding values for `CCN(Cc1cc(C(F)(F)F)ccc1-c1cc(CC(=O)O)ccc1OC)C(=O)CS(=O)(=O)c1ccccc1` [Compound 1-120, (2′-{[(2-Benzenesulfonyl-acetyl)-ethyl-amino]-methyl}-6-methoxy-4′-trifluoromethyl-biphenyl-3-yl)-acetic acid] are less than 0.3 µM, 1000 to 30000 nM and less than 300 nM.
The corresponding values for `COc1ccc(CC(=O)O)cc1-c1ccc(C(F)(F)F)cc1CN(C(C)=O)[C@H]1CCc2ccccc21` [Compound 1-14, {2′-[((S)-Acetyl-indan-1-yl-amino)-methyl]-6-methoxy-4′-trifluoromethyl-biphenyl-3-yl}-acetic acid] are less than 0.3 µM, 1000 to 30000 nM and less than 300 nM.
For `CCN(Cc1cc(C(F)(F)F)ccc1-c1cc(CC(=O)O)ccc1OC)C(=O)NC#N` [Compound 1-99, [2′-(3-Cyano-1-ethyl-ureidomethyl)-6-methoxy-4′-trifluoromethyl-biphenyl-3-yl]-acetic acid], in that order: 0.3 to 1 µM, 1000 to 30000 nM and less than 300 nM.
Consider `CCN(Cc1cc(C(F)(F)F)ccc1-c1cc(CC(=O)O)ccc1OC)C(=O)CSc1ccccc1` [Compound 1-117, (2′-{[Ethyl-(2-phenylsulfanyl-acetyl)-amino]-methyl}-6-methoxy-4′-trifluoromethyl-biphenyl-3-yl)-acetic acid], for which the IC50 in test [1] was less than 0.3 µM; on human DP1 receptor it was 1000 to 30000 nM; at human DP2 receptor, less than 300 nM.
Consider `CCOc1ccc(-c2ccc(-c3cc(CC(=O)O)ccc3OC)c(CN(CC)C(=O)C3CC3)c2)cn1` [Compound 1-227, [2′-[(Cyclopropanecarbonyl-ethyl-amino)-methyl]-4′-(6-ethoxy-pyridin-3-yl)-6-methoxy-biphenyl-3-yl]-acetic acid], for which the IC50 was less than 0.3 µM in test [1], 1000 to 30000 nM at human DP1 receptor and less than 300 nM at human DP2 receptor.
The corresponding values for `CCN(Cc1cc(C(F)(F)F)ccc1-c1cc(CC(=O)O)ccc1OC)/C(=N/C#N)NCc1ccccc1` [Compound 1-111, [2′-(N′-Benzyl-N″-cyano-N-ethyl-guanidinomethyl)-6-methoxy-4′-trifluoromethyl-biphenyl-3-yl]-acetic acid] are less than 0.3 µM, 1000 to 30000 nM and less than 300 nM.
The corresponding values for `CCN(Cc1cc(C(F)(F)F)ccc1-c1cc(CC(=O)O)cc(C(F)(F)F)c1)C(=O)OCc1ccccc1` [Compound 1-109, {2′-[(Benzyloxycarbonyl-ethyl-amino)-methyl]-5,4′-bis-trifluoromethyl-biphenyl-3-yl}-acetic acid] are less than 0.3 µM, 1000 to 30000 nM and less than 300 nM.
For `COc1ccc(CC(=O)O)cc1-c1ccc(C(F)(F)F)cc1CN(CCO)C(C)=O` [Compound 1-5, (2′-{[Acetyl-(2-hydroxy-ethyl)-amino]-methyl}-6-methoxy-4′-trifluoromethyl-biphenyl-3-yl)-acetic acid], in that order: 0.3 to 1 µM, 1000 to 30000 nM and less than 300 nM.
Regarding `CCN(Cc1cc(C(F)(F)F)ccc1-c1cc(CC(=O)O)ccc1OC)/C(=N/C#N)NCc1ccc(OC)cc1` [Compound 1-114, {2′-[N′-Cyano-N-ethyl-N″-(4-methoxy-benzyl)-guanidinomethyl]-6-methoxy-4′-trifluoromethyl-biphenyl-3-yl}-acetic acid], the IC50 in test [1] was less than 0.3 µM; at human DP1 receptor, 1000 to 30000 nM; at human DP2 receptor it was less than 300 nM.
For `COC(=O)N(Cc1cc(C(F)(F)F)ccc1-c1cc(CC(=O)O)ccc1OC)C1Cc2ccccc2C1` [Compound 1-26, {2′-[(Indan-2-yl-methoxycarbonyl-amino)-methyl]-6-methoxy-4′-trifluoromethyl-biphenyl-3-yl}-acetic acid], in that order: less than 0.3 µM, 1000 to 30000 nM and less than 300 nM.
For `COc1ccc(CC(=O)O)cc1-c1ccc(C(F)(F)F)cc1CN(CC(C)(C)C)C(C)=O` [Compound 1-3, (2′-{[Acetyl-(2,2-dimethyl-propyl)-amino]-methyl}-6-methoxy-4′-trifluoromethyl-biphenyl-3-yl)-acetic acid], in that order: less than 0.3 µM, 1000 to 30000 nM and less than 300 nM.
